Results on five compounds are retold here after patent US6251919A, “Heterocyclic substituted aniline calcium channel blockers” (Warner-Lambert, priority 1999, dated 2001).

Where two headings read alike, the source gives them in different places. Bridges are numbered along the chain shown (N, C = ends). Where no end group is shown, it is not given here.

The target in assay [1] is T1, N-type Ca^2+ channel in IMR-32 cells (Homo sapiens, UniProt Q00975).
T1 construct: host or cells: IMR-32 (differentiated with dibutyryl cAMP and bromodeoxyuridine)
T1 sequence (Q00975 whole entry): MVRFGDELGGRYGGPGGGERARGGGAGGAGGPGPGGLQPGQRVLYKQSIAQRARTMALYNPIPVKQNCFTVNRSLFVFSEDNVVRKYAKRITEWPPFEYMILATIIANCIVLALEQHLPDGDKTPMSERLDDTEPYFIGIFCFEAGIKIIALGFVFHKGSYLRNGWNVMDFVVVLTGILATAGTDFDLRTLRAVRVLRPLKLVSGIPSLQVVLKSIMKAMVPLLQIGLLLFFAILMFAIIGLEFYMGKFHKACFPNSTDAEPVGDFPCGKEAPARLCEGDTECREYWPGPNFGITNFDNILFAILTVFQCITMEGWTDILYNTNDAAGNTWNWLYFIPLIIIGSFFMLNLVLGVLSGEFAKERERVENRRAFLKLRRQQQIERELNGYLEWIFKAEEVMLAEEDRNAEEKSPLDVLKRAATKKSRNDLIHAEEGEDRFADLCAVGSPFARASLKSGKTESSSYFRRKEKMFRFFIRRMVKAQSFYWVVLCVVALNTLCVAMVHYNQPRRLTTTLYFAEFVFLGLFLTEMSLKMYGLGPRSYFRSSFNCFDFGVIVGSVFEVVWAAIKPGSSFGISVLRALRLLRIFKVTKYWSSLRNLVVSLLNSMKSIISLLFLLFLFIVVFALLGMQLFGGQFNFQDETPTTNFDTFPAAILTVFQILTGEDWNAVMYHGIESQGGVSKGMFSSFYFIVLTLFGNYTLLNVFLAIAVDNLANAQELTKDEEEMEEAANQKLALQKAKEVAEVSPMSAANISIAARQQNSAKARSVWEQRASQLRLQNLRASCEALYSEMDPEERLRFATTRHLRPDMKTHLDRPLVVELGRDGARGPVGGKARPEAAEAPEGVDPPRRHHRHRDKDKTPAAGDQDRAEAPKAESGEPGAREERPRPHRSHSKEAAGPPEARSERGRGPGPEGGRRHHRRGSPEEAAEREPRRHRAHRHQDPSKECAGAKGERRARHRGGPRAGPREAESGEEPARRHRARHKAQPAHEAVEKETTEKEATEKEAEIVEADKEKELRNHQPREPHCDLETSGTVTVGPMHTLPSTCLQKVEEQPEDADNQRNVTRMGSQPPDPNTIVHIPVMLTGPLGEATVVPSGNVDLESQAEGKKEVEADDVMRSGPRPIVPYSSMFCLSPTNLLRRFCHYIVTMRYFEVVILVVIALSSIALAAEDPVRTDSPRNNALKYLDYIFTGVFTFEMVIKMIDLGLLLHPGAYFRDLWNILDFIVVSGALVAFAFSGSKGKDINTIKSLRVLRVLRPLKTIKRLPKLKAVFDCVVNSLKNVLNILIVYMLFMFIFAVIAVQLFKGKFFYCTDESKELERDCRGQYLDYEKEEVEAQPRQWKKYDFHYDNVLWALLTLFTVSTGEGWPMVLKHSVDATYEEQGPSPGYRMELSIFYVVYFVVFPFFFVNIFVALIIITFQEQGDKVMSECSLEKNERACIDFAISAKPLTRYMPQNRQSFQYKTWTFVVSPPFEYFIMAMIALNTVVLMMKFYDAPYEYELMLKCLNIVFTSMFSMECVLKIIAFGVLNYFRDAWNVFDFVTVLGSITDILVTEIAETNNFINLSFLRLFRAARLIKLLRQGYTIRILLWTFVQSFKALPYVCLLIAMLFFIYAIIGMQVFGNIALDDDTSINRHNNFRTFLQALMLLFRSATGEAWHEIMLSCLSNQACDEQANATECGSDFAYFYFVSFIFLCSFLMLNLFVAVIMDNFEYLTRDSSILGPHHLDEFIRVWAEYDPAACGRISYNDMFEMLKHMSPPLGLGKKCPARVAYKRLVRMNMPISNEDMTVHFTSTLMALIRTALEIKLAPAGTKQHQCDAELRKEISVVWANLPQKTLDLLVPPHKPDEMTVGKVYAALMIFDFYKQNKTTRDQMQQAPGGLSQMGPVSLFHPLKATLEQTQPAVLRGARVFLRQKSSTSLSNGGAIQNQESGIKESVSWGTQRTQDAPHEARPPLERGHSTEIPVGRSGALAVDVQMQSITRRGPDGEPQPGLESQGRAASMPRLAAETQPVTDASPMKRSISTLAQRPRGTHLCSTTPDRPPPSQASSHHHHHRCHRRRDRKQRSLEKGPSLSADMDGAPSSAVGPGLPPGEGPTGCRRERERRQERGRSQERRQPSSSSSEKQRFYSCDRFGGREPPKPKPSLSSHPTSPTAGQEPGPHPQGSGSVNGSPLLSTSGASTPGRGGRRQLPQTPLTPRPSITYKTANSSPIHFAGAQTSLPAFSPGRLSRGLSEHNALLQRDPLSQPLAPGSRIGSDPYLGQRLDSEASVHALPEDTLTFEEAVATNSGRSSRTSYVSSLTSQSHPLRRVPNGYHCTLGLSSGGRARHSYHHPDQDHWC
Briefly: N-type Ca2+ channel blockade in IMR-32 cells (fluorescent Ca2+ indicator Indo-1). The format is cell-based. The settings on record: 5 μM nitrendipine present; for inhibition at 1 µM: IMR-32, 1 μM; for inhibition at 10 µM: IMR-32, 10 μM.

The test system of assay [2] is DBA/2 mice. Briefly: Audiogenic seizure (anticonvulsant) test in DBA/2 mice. The format is in vivo. The conditions noted are these: Mus musculus, intravenous, read-out: DBA/2 mice % Protection. Here is the method: A compound of the present invention was dissolved in water using 10% (weight/volume) Emulphor (GAF Corp., Wayne, N.J.) surfactant. Substances were administered by intravenous injection into the retro-orbital venous sinus. All testing was performed fifteen minutes or forty-five minutes after drug injection. All the male mice, 3-4 weeks old were obtained from Jackson Laboratories Bar Harbour, Me. Immediately before anticonvulsant testing, mice were placed upon a wire mesh, four inches square suspended from a steel rod. The square was slowly inserted through 180 degree and mice observed for thirty seconds. Any mouse falling from the wire mesh was scored as ataxia.
Mice were placed into an enclosed acrylic plastic chamber (21 cm height, approximately 30 cm diameter) with a high-frequency speaker (4 cm diameter) in the center of the top lid. An audio signal generator (Protek model B-810) was used to produe a continuous sinusoidal tone that was swept linearly in frequency between 8 kHz and 16 kHz once each 10 msec. The average sound pressure level (SPL) during stimulation was approximately 100 dB at the floor of the chamber. Mice were placed within the chamber and allowed to acclimatize for one minute. DBA/2 mice in the vehicle-treated group responded to the sound stimulus (applied until tonic extension occurred, or for a maximum of sixty seconds) with a characteristic seizure sequence consisting of wild running followed by clonic seizures and later by tonic extension, and finally by respiratory arrest and death in 80% or more of the mice. In vehicle-treated mice, the entire sequence of seizures to respiratory arrest lasts approximately 15-20 seconds.
The incidence of all the seizure phases in the drug-treated and vehicle-treated mice was recorded, and the occurrence of tonic seizures were used for calculating anticonvulsant ED50 values by probit analysis. Mice were used only once for testing at each time and dose point.

Assay [3] concerns male Swiss-Webster mice. Briefly: Anti-Writhing Test in Mice (AW), acetic acid. It is filed as in vivo. From the text: Anti-Writhing Test in Mice (AW) Test Protocol
The purpose of this test is to evaluate drugs for analgesic-like activity. The AW test determines the effect of drugs on the response to a presumed painful stimulus in mice and is used as a preliminary in vivo procedure for the identification of potential analgesic agents.
Known analgesics with low, moderate, or high efficacy in man allow mice to tolerate intra-peritoneal administration of dilute acetic acid as evidenced by lesser incidence of writhing movements. The AW test measures the nociceptive response to acetic acid in mice and provides an objective, reliable, and quantitative estimate of efficacy and potency of potential analgesic compounds. […]
Compounds are dissolved or suspended in physiological saline containing 2% Emulphor. […] Drug doses are expressed as the active moiety and are normally administered to mice (10, 30, and 100 mg/kg IP, SC, PO, or IM) in a volume of 10 mL/kg, 1 hour prior to testing; ICV doses (in μg/kg) are administered in a volume of 0.5 mL/kg, 5 minutes prior to testing. […]
Mice are treated with a dilute solution of acetic acid (0.6%, 10 mL/kg IP) which elicits writhing. […] Writhing movements (abdominal contractions, stretching of the torso and hind legs, and concave arching of the back) are counted for 5 minutes commencing 7 minutes after acetic acid administration. […]
(In general: In writhing tests, fewer writhes than in controls are read as antinociception.)

The subject of assay [4] is N-type calcium channel. The settings on record: Bowersox et al. 1994; cited from earlier work.
Assay [5] has as its system models of ischemia and pain. The conditions noted are these: Bowersox et al. 1994; cited from earlier work.

As usually defined, the inhibition is the change of the read-out against control, counted positive when it falls. Turning to `CC(C)=CCN(c1ccc(OCc2ccccc2)cc1)C1CCN(C(=O)C2CN(C(C)C)CCN2CCC(C)C)CC1` (stereo not drawn) [Example 15, {4-[(4-Benzyloxy-phenyl)-(3-methyl-but-2-enyl)-amino]-piperidin-1-yl}-[4-isopropyl-1-(3-methyl-butyl)-piperazin-2-yl]-methanone], in assay [1], the inhibition at 1 µM turned out to be 51% and the inhibition at 10 µM came to 92%. In addition, in assay [2] (0.75 h, 30 mg/kg (45 min)), the responders at 30 mg/kg was 100%. Besides, the responders at 10 mg/kg in assay [2] is 20%.
For orientation: IC50 means the concentration that gives 50% inhibition. A high value points to lower potency. Compound `CC(C)=CCN(c1ccc(OCc2ccccc2)cc1)C1CCN(Cc2ccccc2)CC1` [Example 19, (4-Benzyloxy-phenyl)-(1-benzyl-piperidin4-yl)-(3-methyl-but-2-enyl)-amine] registered an IC50 in assay [1] of 0.72 µM. In addition, in assay [2], the responders at 10 mg/kg came to 80%.
For `CC(C)=CCN(c1ccc(OCc2ccccc2)cc1)C1CCN(CCC(C)O)CC1` (stereo not drawn) [Example 20, 4-{4-[(4-Benzyloxy-phenyl)-(3-methyl-but-2-enyl)-aminol]-piperidin-1-yl}-butan-2-ol], the IC50 in assay [1] worked out at 3 µM. In addition, the responders at 10 mg/kg in assay [2] turned out to be 40%.
As for `CC(C)=CCN(c1ccc(OCc2ccccc2)cc1)C1CCN(C(=O)[C@@H](O)CC(C)C)CC1` [Example 44, (S)-1-{4-[(4-Benzyloxy-phenyl)-(3-methyl-but-2-enyl)-amino]-piperidin-1-yl}-2-hydroxy-4-methyl-pentan-1-one], in assay [1], the inhibition at 1 µM was 64% and the inhibition at 10 µM amounted to 107%. The “Anti-Writhing % Protection” value in assay [3] (10 mg/kg) was 30%. Further, in assay [3] (30 mg/kg), the “Anti-Writhing % Protection” value is recorded as 100%. Also, the responders at 30 mg/kg in assay [2] (30 mg/kg) turned out to be 100%.
As to “SNX-111: selective N-type calcium channel blocker (CKGKGAKCSRLMYDCCTGSCRSGKC-NH2; disulfide 1-16, 15-25, 8-20; UniProt P05484 46-70, looked up)”, the “N-type calcium channel blockade selectivity” value in assay [4] is “selective N-type calcium channel blocker”. In assay [5], the “activity in models of ischemia and pain” value was “demonstrated activity in a number of models of ischemia and pain”.
